pIC50: −log10 of the molar value.
Experiments:
[1] = tested on: PC3 cells; experiment: Cell-monolayer scratch assay (cell motility); assay type: cell-based, human; details: 36 hours, half of the IC50 doses from the MTT assay
Method: The motility of cancer cells is an index of their ability to come out of the primary tumor, invade, and metastasize to distant tissues. MetasTx tested Compound 1. Compound 3, and Compound 4 for their inhibitory effect on human metastatic prostate cancer (PC3) cells by using a ‘cell-monolayer scratch assay”, a reliable technique to determine the rate of cancer cell motility.
A total of 0.5×10^5 PC3 cells were plated per well on 6 well plates to obtain 95% confluent monolayers of cells after overnight incubation. The following day, a linear scratch (wound) was made using a 200 μl pipette tip and the detached cells were washed away by sterile phosphate-buffered saline (PBS). Images of scratches were captured from three different locations under a phase-contrast microscope at 4× magnification. The monolayers were treated with the desired doses of vehicle or drugs (half of the IC50 doses determined from the MTT assay). The cells were allowed to migrate for 36 hours, and images of the wound were re-captured from the same locations. The percentage of healed areas was determined using the NIH ImageJ software by measuring the distance of imported images in Microsoft Office PowerPoint (Microsoft Office Inc.) at the same magnification.

[2] = tested on: PC3 cells; experiment: Annexin V-PE / 7-AAD apoptosis and necrosis assay (flow cytometry); assay type: cell-based, human; details: 24 hours treatment
Method: The anti-cancer efficacy of a drug was also evaluated based on the ability of the compound to induce apoptosis and/necrosis in cancer cells. […] Compound 1. Compound 3, and Compound 4 were tested based on their ability to induce apoptosis and necrosis in vitro. The protocol was as follows:
The apoptotic death of cells was determined using an Annexin V-PE apoptosis detection kit (Cat #559763; BD Biosciences. CA. USA) according to the manufacturer's protocol. In brief. PC3 cells were treated with DMSO (0.3%). IPA3. Compound 1. Compound 3 and Compound 4 for 24 hours. At the end of treatment, cells were trypsinized, washed with PBS and stained with annexin V-Phycoerythrin (PE) and 7-Amino-Actinomycin (7-AAD). The stained cells were analyzed using a flow cytometer within 1 h of staining.

[3] = tested on: PC3 cells; experiment: MTT assay, cancer cell metabolic activity and proliferation; assay type: cell-based; details: Homo sapiens, PC-3, 24 h treatment, read-out: IC50, anti-proliferative effect (MTT)
Method: A MTT (3-[4,5-dimethylthiazol-2-yl]-2,5 diphenyl tetrazolium bromide) assay was used to assess cancer cell metabolic activity and proliferation.
The protocol was as follows: • A total of 4000 PC3 cells were seeded per well in 96-well plates. Following attachment, cells were treated with vehicle control DMSO, IPA3, Compound 1, Compound 3, and Compound 4 at various doses as indicated for 24 h. Growth inhibition was determined by MTT [3-(4,5-dimethylthiazol-2-yl)-2,5-diphenyltetrazolium bromide] (Sigma-Aldrich, St. Louis, MO, USA; catalog No. M2128) assay. The MTT solution was added to the media at a final concentration of 0.8 mg/mL and cells were incubated at 37° C. for 2 hours. After aspiration of media, formazan crystals were dissolved in 100 μl of DMSO. Optical densities were measured at 570 nm using a SynergyHT plate reader (BioTek. Winooski. […]. USA). To calculate IC50 values. GraphPad Prism Software was used (GraphPad Software. San Diego, CA. USA).

[4] = target: PAK5 (Homo sapiens, UniProt Q9P286); details: group II PAK; cited from earlier work
Sequence of PAK5 (Q9P286 whole entry): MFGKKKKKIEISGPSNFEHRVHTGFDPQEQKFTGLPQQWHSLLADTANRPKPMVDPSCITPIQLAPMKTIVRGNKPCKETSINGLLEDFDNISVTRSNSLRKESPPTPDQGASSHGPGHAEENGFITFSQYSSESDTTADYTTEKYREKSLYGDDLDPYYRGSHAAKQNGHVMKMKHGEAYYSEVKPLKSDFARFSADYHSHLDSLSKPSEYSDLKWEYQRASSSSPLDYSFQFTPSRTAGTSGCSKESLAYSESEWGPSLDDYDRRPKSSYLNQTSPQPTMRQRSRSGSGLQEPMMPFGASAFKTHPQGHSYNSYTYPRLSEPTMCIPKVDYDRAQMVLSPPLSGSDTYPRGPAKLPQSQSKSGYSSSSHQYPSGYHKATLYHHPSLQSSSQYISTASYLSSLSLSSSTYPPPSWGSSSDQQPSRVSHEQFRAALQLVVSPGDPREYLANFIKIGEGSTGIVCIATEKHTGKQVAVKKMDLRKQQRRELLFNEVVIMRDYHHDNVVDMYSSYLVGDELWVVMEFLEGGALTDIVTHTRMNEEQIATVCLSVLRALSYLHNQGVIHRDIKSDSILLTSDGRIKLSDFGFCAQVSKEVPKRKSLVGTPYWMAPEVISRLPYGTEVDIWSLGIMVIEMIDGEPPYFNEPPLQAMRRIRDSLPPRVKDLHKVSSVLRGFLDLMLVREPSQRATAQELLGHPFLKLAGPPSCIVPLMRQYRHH

[5] = cited from earlier work
[6] = target: PAK4 (Homo sapiens, UniProt O96013); details: group II PAK; cited from earlier work
Sequence of PAK4 (O96013 whole entry, species assumed): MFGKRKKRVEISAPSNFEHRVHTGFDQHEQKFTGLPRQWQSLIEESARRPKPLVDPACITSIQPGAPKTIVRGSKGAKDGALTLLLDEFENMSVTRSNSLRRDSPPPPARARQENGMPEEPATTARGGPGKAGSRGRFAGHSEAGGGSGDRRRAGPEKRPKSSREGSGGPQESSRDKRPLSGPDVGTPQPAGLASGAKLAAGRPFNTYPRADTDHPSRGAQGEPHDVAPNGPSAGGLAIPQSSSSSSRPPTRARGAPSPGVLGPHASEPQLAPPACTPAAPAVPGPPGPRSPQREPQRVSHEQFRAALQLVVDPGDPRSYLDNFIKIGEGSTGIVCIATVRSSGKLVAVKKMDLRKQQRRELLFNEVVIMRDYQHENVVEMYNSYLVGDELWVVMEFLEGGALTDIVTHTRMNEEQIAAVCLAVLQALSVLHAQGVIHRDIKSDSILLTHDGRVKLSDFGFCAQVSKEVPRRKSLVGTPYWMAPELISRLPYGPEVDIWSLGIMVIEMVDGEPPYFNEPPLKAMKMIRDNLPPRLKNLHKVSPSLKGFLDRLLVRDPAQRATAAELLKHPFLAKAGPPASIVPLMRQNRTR

[7] = target: PAK6 (Homo sapiens, UniProt Q9NQU5); details: group II PAK; cited from earlier work
Sequence of PAK6 (Q9NQU5 whole entry, species assumed): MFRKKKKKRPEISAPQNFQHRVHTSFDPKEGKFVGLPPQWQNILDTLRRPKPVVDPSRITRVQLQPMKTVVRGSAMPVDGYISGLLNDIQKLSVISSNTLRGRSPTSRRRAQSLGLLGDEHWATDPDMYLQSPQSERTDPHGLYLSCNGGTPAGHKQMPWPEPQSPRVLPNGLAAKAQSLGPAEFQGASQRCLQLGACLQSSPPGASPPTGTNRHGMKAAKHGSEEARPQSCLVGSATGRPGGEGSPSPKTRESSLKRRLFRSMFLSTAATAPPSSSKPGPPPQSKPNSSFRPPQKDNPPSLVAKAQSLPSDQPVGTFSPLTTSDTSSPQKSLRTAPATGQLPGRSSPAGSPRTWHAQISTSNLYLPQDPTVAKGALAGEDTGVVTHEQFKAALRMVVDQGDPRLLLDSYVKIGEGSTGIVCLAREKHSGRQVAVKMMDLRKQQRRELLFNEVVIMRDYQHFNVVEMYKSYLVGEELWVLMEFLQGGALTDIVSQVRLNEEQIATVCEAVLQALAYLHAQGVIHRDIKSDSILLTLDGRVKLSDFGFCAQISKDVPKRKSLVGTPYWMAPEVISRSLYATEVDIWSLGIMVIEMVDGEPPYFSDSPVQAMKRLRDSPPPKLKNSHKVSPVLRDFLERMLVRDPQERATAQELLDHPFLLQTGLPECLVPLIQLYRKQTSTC

Structure (SMILES)	inhibition of PC3 cell motility compared to vehicle (DMSO)-treated control [1]	induction of apoptosis and necrosis compared to vehicle (DMSO)-treated control [2]	pIC50 [3]	total cell death compared to IPA-3 [2]	inhibition of PAK5 [4]	stability in plasma [5]	inhibition of PAK4 [6]	inhibition of PAK6 [7]
Oc1ccc2ccccc2c1CSc1c(O)ccc2ccccc12 [Compound 1]	did not show significant inhibition	robust induction of apoptosis and necrosis	4.30	–	–	–	–	–
Oc1ccc2ccccc2c1CSCc1c(O)ccc2ccccc12 [Compound 3]	significant anti-cancer cell motility effects	robust induction of apoptosis and necrosis	4.65	superior efficacy in inducing total cell death	–	–	–	–
Oc1ccc2ccccc2c1CCCc1c(O)ccc2ccccc12 [Compound 4]	significant anti-cancer cell motility effects	robust induction of apoptosis and necrosis	4.81	superior efficacy in inducing total cell death	–	–	–	–
Oc1ccc2ccccc2c1SSc1c(O)ccc2ccccc12 [IPA-3, 2,2″-dihydroxy-1, 1′-dinaphthyldisulfide]	did not show significant inhibition	robust induction of apoptosis and necrosis	4.55	–	does not inhibit	not very stable	does not inhibit	does not inhibit
